Biological target: T1, human HPK1 protein (Homo sapiens, UniProt Q92918)
T1 construct: recombinant human HPK1 protein (a.a. 1-346) was expressed in Sf9 insect cells; GST (N); purchased Signalchem M23-11G; host or cells: Sf9 insect cells (baculovirus)
T1 sequence (Q92918 1-346): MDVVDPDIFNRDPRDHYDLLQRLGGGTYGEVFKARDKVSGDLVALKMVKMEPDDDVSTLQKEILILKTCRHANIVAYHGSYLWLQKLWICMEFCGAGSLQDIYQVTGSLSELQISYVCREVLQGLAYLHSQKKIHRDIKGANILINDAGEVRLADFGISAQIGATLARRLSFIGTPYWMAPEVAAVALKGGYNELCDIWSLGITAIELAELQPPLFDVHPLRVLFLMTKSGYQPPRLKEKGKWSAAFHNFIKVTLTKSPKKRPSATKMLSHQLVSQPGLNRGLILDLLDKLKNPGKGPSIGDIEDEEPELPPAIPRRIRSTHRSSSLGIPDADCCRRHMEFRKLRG
Test: Human HPK1 protein TR-FRET assay
Format: biochemical
Conditions: 1 mM ATP
Procedure, shortened: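 GST-tagged HPK1 (a.a. 1-346, Sf9-expressed) at 10 nM phosphorylated 100 nM ULight CREBtide with 1 mM ATP in Tris pH 7.5, MgCl2, NP-40, DTT, 1% DMSO, 60 minutes at room temperature. Phospho-Ser133 detected by Eu-antibody TR-FRET (665/615 nm ratio); IC50 from 4-parameter fit against DMSO control.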

Structure (SMILES)	IC50 (Table 19)	IC50 (Table 20)
Cc1cc2c(Oc3ccc4c(c3)[C@H](C)N(C(=O)Nc3cnc(OC5CCN(C)CC5C)c(C(F)(F)F)c3)CC4)ccnc2[nH]1 (stereo in doubt) [VI-5]	< 500 nM	
CCN1CCN(Cc2ccc(NC(=O)N3CCc4ccc(Oc5ccnc6[nH]ccc56)cc4[C@@H]3C)cc2C(F)(F)F)CC1 [compound 6, (S)-7-((1H-Pyrrolo[2,3-b]pyridin-4-yl)oxy)-N-(4-((4-ethylpiperazin-1-yl)methyl)-3-(trifluoromethyl)phenyl)-1-methyl-3,4-dihydroisoquinoline-2(1H)-carboxamide]	< 500 nM	
CCN1CCN(Cc2ccc(NC(=O)N3CCc4cc(F)c(Oc5ccnn6cccc56)cc4C3C)cc2C(F)(F)F)CC1 (stereo not shown) [IV-32]	> 10000 nM	
CC[C@H]1CN(C(=O)Nc2ccc(CN3CCN(CCF)CC3)c(C(F)(F)F)c2)Cc2cc(Oc3ccnc4[nH]c(C(=O)N(C)C)cc34)cnc21 [XIV-138]		< 500 nM
Cc1cc2c(Oc3ccc4c(c3)[C@H](C)N(C(=O)Nc3cnc(OC5CCN(C)CC5F)c(C(F)(F)F)c3)CC4)ccnc2[nH]1 (stereo in doubt) [VI-11]	500 to 5000 nM	
CCN1CCN(Cc2ccc(NC(=O)N3CCc4ncc(Oc5ccnc6[nH]ccc56)cc4C3C)cc2C(F)(F)F)CC1 (stereo not shown) [compound 9, 3-((1H-pyrrolo[2,3-b]pyridin-4-yl)oxy)-N-(4-((4-ethylpiperazin-1-yl)methyl)-3-(trifluoromethyl)phenyl)-5-methyl-7,8-dihydro-1,6-naphthyridine-6(5H)-carboxamide]	< 500 nM	
CC[C@H]1CN(C(=O)Nc2ccc(CN3CCN(CC)CC3)c(C(F)(F)F)c2)Cc2cc(Oc3ccnc4[nH]c(C#N)cc34)cnc21 [XIV-20]		< 500 nM
CCN1CCN(Cc2ccc(NC(=O)N3CCc4ccc(Oc5cc(NC(=O)C6CC6)ncn5)cc4C3)cc2C(F)(F)F)CC1 [II-10]	< 500 nM	
CC[C@H]1CN(C(=O)Nc2ccc(CN3CCNCC3)c(C(F)(F)F)c2)Cc2cc(Oc3ccnc4[nH]c(CO)cc34)cnc21 [XIV-55]		< 500 nM
Cc1cc2c(Oc3cnc4c(c3)CN(C(=O)Nc3cnc(OC5CCN(C)CC5O)c(C(F)(F)F)c3)CC4C)ccnc2[nH]1 (stereo not shown) [VII-19]	< 500 nM	
CCN1CCN(Cc2ccc(NC(=O)N3CCc4cc(F)c(Oc5ncnn6cccc56)cc4C3C)cc2C(F)(F)F)CC1 (stereo not shown) [IV-34]	> 10000 nM	
CCN1CCN(Cc2ccc(NC(=O)N3CCc4cc(F)c(Oc5ccnc6[nH]c(C)cc56)cc4C3C)cc2C(F)(F)F)CC1 (stereo not shown) [IV-26]	500 to 5000 nM	
CC[C@H]1CN(C(=O)Nc2ccc(CN3CCN(CC)CC3)c(C(F)(F)F)c2)Cc2cc(Oc3ccnc4[nH]c(C5(O)CC5)cc34)cnc21 [XIV-79]		< 500 nM
C[C@H]1CN(C(=O)Nc2ccc(CN3CCN(C)CC3)c(C(F)(F)F)c2)Cc2cc(Oc3c(F)cnc4[nH]c(C(=O)N(C)C)cc34)ccc21 [XV-39]		< 500 nM
CC[C@H]1CN(C(=O)Nc2cc(C(F)(F)F)c(CN3CCN(C)CC3)cc2F)Cc2cc(Oc3ccnc4[nH]c(C(=O)N(C)C)cc34)cnc21 [XIV-137]		< 500 nM
CCN1CCN(Cc2ccc(NC(=O)N3CCc4c(F)cc(Oc5ccnc6[nH]ccc56)cc4C3C)cc2C(F)(F)F)CC1 (stereo not shown) [IV-14]	< 500 nM	
CCN1CCN(Cc2ccc(NC(=O)N3CCc4ccc(Oc5c(F)cnc6[nH]ccc56)cc4C3)cc2C(F)(F)F)CC1 [III-8]	< 500 nM	
CC[C@H]1CN(C(=O)Nc2ccc(CN3CCNCC3)c(C(F)(F)F)c2)Cc2cc(Oc3ccnc4[nH]c(-c5nnc(C)o5)cc34)cnc21 [XIV-113]		< 500 nM
CC[C@@H]1CN(C(=O)Nc2ccc(CN3CCN(CC)CC3)c(C(F)(F)F)c2)Cc2cc(Oc3ncnc4[nH]c(C5CC5)cc34)cnc21 [XIV-37]		< 500 nM
CCN1CCN(Cc2ccc(NC(=O)N3CCc4ncc(Oc5ncnc6[nH]c(C)cc56)cc4[C@H]3C)cc2C(F)(F)F)CC1 [XI-8]		5000 to 10000 nM
Cc1cc2c(Oc3ccc4c(c3)CN(C(=O)Nc3cnc(OC5CCN(C)CC5)c(C(F)(F)F)c3)CC4C)ccnc2[nH]1 (stereo not shown) [IV-38]	< 500 nM	
CC[C@H]1CN(C(=O)Nc2ccc(CN3CCN(C)CC3)c(C(F)(F)F)c2)Cc2cc(Oc3ccnc4[nH]c(CS(C)(=O)=O)cc34)cnc21 [XIV-150]		< 500 nM
C[C@H]1CN(C(=O)Nc2ccc(CN3CCN(C)CC3)c(C(F)(F)F)c2)Cc2cc(Oc3ccnc4[nH]c(C#N)cc34)ccc21 [XV-34]		< 500 nM
CC[C@H]1CN(C(=O)Nc2ccc(CN3CCNCC3)c(C(F)(F)F)c2)Cc2cc(Oc3ccnn4cc(C(=O)NC)cc34)cnc21 [XIV-125]		< 500 nM
CCCC1CN(C(=O)Nc2ccc(CN3CCN(CC)CC3)c(C(F)(F)F)c2)Cc2cc(Oc3ccnc4[nH]c(C)cc34)ccc21 (stereo not shown) [IV-37]	< 500 nM	
C[C@H]1CN(C(=O)Nc2ccc(CN3CCN(C)CC3)c(C(F)(F)F)c2)Cc2cc(Oc3ccnc4[nH]c(C5(O)COC5)cc34)ccc21 [XV-32]		< 500 nM

Structure (SMILES)	IC50 (Table 19)	IC50 (Table 20)
C[C@H]1CN(C(=O)Nc2ccc(CN3CCN(C)CC3)c(C(F)(F)F)c2)Cc2cc(Oc3ccnc4[nH]c(C(N)=O)cc34)cnc21 [XIV-86]		< 500 nM
CCN1CCN(Cc2ccc(NC(=O)N3CCc4ncc(Oc5ccnc6[nH]ccc56)cc4[C@H]3C)cc2C(F)(F)F)CC1 [XI-4]		500 to 5000 nM
O=C(Nc1ccc(CN2CCNCC2)c(C(F)(F)F)c1)N1CCc2ccc(Oc3ccnc4[nH]c(C5(O)CC5)cc34)cc2C1 [XVIII-9]		< 500 nM
CCN1CCN(Cc2ccc(NC(=O)N3CCc4ncc(Oc5ccnc6[nH]ccc56)cc4[C@@H]3C)cc2C(F)(F)F)CC1 [XI-3]		< 500 nM
CCN1CCN(Cc2ccc(NC(=O)N3CCc4c(C)cc(Oc5ccnc6[nH]ccc56)cc4C3)cc2C(F)(F)F)CC1 [III-9]	< 500 nM	
CCC1CN(C(=O)Nc2ccc(CN3CCN(CC)CC3)c(C(F)(F)F)c2)Cc2cc(Oc3ccnc4[nH]c(C)cc34)cnc21 (single isomer, unassigned) [VII-22]	< 500 nM	
CC[C@@H]1CN(C(=O)Nc2ccc(CN3CCNCC3)c(C(F)(F)F)c2)Cc2cc(Oc3ccnc4[nH]c(C#N)cc34)ccc21 [XV-16]		< 500 nM
CN1CCN(Cc2ccc(NC(=O)N3CCc4ccc(Oc5c(F)cnc6[nH]c(-c7ccncc7)cc56)cc4C3)cc2C(F)(F)F)CC1 [XII-5]		< 500 nM
C[C@H]1c2cc(Oc3ccnc4[nH]ccc34)ccc2CCN1C(=O)Nc1ccc(CN2CCN(CCO)CC2)c(C(F)F)c1 [V-18]	< 500 nM	
CCN1CCN(Cc2ccc(NC(=O)N3CCc4ccc(Oc5ccnc6[nH]c(C#N)cc56)cc4[C@@H]3C)cc2C(F)(F)F)CC1 [V-10]	< 500 nM	
CC[C@@H]1CN(C(=O)Nc2ccc(CN3CCN(C)CC3)c(C(F)(F)F)c2)Cc2cc(Oc3ccnc4[nH]c(C5(O)COC5)cc34)ccc21 [XV-12]		< 500 nM
C[C@H]1CN(C(=O)Nc2ccc(CN3CCN(C)CC3)c(C(F)(F)F)c2)Cc2cc(Oc3c(F)cnc4[nH]c(CO)cc34)ccc21 [XV-38]		< 500 nM
CCN1CCN(Cc2ccc(NC(=O)N3Cc4cc(Nc5ccnc(NC)c5)cnc4C(C)C3)cc2C(F)(F)F)CC1 (single isomer, unassigned) [IX-3]	5000 to 10000 nM	
C[C@H]1c2cc(Oc3ccnc4[nH]c(C5(O)COC5)cc34)ccc2CCN1C(=O)Nc1ccc(CN2CCN(C)CC2)c(C(F)F)c1 [XIII-10]		< 500 nM
CCN1CCN(Cc2ccc(NC(=O)N3Cc4cc(Oc5ccnc6[nH]ccc56)c(F)cc4C(C)C3)cc2C(F)(F)F)CC1 (stereo not shown) [compound 4, 7-((1H-pyrrolo[2,3-b]pyridin-4-yl)oxy)-N-(4-((4-ethylpiperazin-1-yl)methyl)-3-(trifluoromethyl)phenyl)-6-fluoro-4-methyl-3,4-dihydroisoquinoline-2(1H)-carboxamide]	< 500 nM	
CC[C@H]1Cc2ncc(Oc3ccnc4[nH]ccc34)cc2CN1C(=O)Nc1ccc(CN2CCN(CC)CC2)c(C(F)(F)F)c1 [XVIII-16]		< 500 nM
CCN1CCN(Cc2ccc(NC(=O)N3CCc4nc(C)c(Oc5ccnc6[nH]ccc56)cc4C3)cc2C(F)(F)F)CC1 [X-5]	< 500 nM	
C[C@H]1c2cc(Oc3ccnc4[nH]ccc34)ccc2CCN1C(=O)Nc1cc(C(F)(F)F)c(OC2CCN(C)CC2)cn1 [IV-9]	< 500 nM	
CCN1CCN(Cc2ccc(NC(=O)N3Cc4cc(Oc5ccnc6[nH]c(C)cc56)cnc4C(C)C3)cc2C(F)(F)F)CC1 (single isomer, unassigned) [VII-21]	< 500 nM	
C[C@@H]1CN(C(=O)Nc2ccc(CN3CCN(C)CC3)c(C(F)(F)F)c2)Cc2cc(Oc3ccnc4[nH]c(CO)cc34)cnc21 [XIV-75]		< 500 nM
CCN1CCN(Cc2ccc(NC(=O)N3CCc4ccc(Oc5ccnc6[nH]ncc56)cc4C3)cc2C(F)(F)F)CC1 [II-4]	< 500 nM	
C[C@H]1CN(C(=O)Nc2ccc(CN3CCN(C)CC3)c(C(F)(F)F)c2)Cc2cc(Oc3ccnc4[nH]c(C5CC5)cc34)cnc21 [XIV-81]		< 500 nM
CC[C@H]1CN(C(=O)Nc2ccc(CN3CCN(CC(F)F)CC3)c(C(F)(F)F)c2)Cc2cc(Oc3ccnc4[nH]c(C(=O)N(C)C)cc34)cnc21 [XIV-139]		500 to 5000 nM
CCN1CCN(Cc2ccc(NC(=O)N3Cc4cc(Oc5ccnc6[nH]c(=O)ccc56)cnc4C(C)C3)cc2C(F)(F)F)CC1 (single isomer, unassigned) [XIV-2]		< 500 nM
CC[C@H]1CN(C(=O)Nc2ccc(CN3CCN(CCO)CC3)c(C(F)(F)F)c2)Cc2cc(Oc3ccnc4[nH]c(CO)cc34)ccc21 [XV-22]		< 500 nM
Cc1cc2c(Oc3cnc4c(c3)CN(C(=O)Nc3ccc(CN5CCNC6(CC6)C5)c(C(F)(F)F)c3)C[C@H]4C)ccnc2[nH]1 [XIV-94]		< 500 nM
